From patent US5011854A, “Hydroxamic acid derivatives and use thereof in combatting lipoxygenase-mediated diseases” (Kyowa Hakko Kogyo Co. Ltd., priority 1987, dated 1991)

What was measured:
12-lipoxygenase [1] = molecular target: T1, 12-lipoxygenase (Bos taurus, UniProt F1MFA8); assay: Platelet 12-lipoxygenase inhibiting activity (Test Example 2, [14C]-arachidonic acid, TLC); type: biochemical; conditions: bovine platelet-derived preparation; 20 μM [14C]-arachidonic acid; pH 7.4; 30° C., 10 min; TLC/scintillation; read-out: Inhibitory Activity IC50, 12-Lipoxygenase
T1 construct: a bovine platelet-derived preparation was used as the 12-lipoxygenase source; from tissue; host or cells: bovine platelets
T1 sequence (F1MFA8 1-663): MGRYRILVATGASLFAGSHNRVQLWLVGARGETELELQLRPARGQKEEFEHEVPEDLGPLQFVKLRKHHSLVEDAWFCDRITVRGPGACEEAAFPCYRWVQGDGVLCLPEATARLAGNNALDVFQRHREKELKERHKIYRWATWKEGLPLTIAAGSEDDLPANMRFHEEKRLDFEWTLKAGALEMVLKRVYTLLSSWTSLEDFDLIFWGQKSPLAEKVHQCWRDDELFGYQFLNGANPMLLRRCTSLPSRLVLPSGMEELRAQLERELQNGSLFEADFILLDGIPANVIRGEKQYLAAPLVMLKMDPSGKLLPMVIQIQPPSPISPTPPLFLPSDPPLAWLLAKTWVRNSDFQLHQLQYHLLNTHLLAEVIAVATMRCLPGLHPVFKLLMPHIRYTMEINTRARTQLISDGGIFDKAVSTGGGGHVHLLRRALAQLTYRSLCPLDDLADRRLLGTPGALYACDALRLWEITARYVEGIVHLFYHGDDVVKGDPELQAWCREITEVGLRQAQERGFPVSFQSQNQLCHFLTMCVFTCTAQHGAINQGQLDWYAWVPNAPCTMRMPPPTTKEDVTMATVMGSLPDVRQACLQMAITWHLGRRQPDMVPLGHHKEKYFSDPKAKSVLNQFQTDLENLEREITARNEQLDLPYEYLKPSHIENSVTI

5-lipoxygenase [2] = molecular target: T2, 5-lipoxygenase (Rattus norvegicus, UniProt P12527); assay: 5-Lipoxygenase inhibiting activity (Test Example 2, [14C]-arachidonic acid, TLC); type: biochemical; conditions: RBL-1 cells as enzyme source; 27 μM [14C]-arachidonic acid; pH 7.4; 37° C., 5 min; TLC/scintillation; read-out: Inhibitory Activity IC50, 5-Lipoxygenase
T2 construct: rat basophilic leukemia cells (RBL-1, ATCC No. CRL 1378) were used as the 5-lipoxygenase source; endogenous in cells; host or cells: RBL-1 (rat basophilic leukemia, ATCC CRL 1378)
T2 sequence (P12527 1-673): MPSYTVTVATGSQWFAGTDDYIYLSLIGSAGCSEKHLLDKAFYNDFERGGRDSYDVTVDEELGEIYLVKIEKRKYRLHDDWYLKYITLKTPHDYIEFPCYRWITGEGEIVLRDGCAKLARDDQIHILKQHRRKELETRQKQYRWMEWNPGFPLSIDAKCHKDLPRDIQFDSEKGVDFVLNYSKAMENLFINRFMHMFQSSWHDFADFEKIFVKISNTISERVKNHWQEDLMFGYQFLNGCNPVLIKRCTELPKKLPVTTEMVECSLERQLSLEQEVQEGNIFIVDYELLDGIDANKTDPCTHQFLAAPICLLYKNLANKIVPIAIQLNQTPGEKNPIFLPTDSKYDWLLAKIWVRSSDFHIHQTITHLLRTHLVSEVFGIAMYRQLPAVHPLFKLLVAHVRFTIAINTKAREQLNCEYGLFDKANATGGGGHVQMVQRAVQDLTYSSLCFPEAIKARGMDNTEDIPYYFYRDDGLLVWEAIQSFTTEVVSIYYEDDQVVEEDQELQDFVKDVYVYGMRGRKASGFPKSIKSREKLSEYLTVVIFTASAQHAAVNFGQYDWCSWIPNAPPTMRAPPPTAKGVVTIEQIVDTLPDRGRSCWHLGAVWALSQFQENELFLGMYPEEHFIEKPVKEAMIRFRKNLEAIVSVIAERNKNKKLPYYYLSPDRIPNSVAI
Experimental: The compounds listed in Table 3 were tested for their lipoxygenase inhibiting activity by the following methods:
(a') 5-Lipoxygenase inhibiting activity
Essentially, the same method described in the above (a) was used. Thus, rat basophilic leukemia cells (RBL-1, ATCC No. CRL 1378) were used as the 5-lipoxygenase source. These cells were contacted with the test compound in 30 μl of 0.17 M Tris-hydrochloride buffer (pH 7.4) containing […] calcium chloride, 3.3 mM adenosine triphosphate and 1 mM glutathione at 37° C. for 5 minutes. Then, 25 μl of 27 μM [^14 C]-arachidonic acid was added and the enzymatic reaction was allowed to proceed at 37° C. for 5 minutes. To the reaction mixture was added 50 μl of ethyl acetate/methanol/0.2 M citric acid (30/4/1), and the whole mixture was stirred. The reaction product extracted into the ethyl acetate layer was separated by silica gel thin layer chromatography [Merck Art 5631: developing solvent; petroleum ether/ethyl ether/acetic acid (50/50/1)]. The site of the product [^14 C]-5-hydroxy-6,8,11,14-eicosatetraenoic acid was detected by autoradiography, the gel portion corresponding to the site was scraped off and assayed for ^14 C using a liquid scintillation counter, and the yield of the product was determined.

12-lipoxygenase [3] = molecular target: T1, 12-lipoxygenase; assay: Platelet 12-lipoxygenase inhibiting activity (Test Example 1, HPLC determination of 12-HETE); type: biochemical; conditions: bovine platelet-derived preparation; 60 μM arachidonic acid; pH 7.4; 30° C., 10 min; HPLC of 12-HETE; read-out: Inhibitory Activity IC50, 12-Lipoxygenase
Experimental: (§1) The compounds listed in Table 2 were tested in vitro for their lipoxygenase inhibiting activity in the following manner: a) Leukocyte 5-lipoxygenase inhibiting activity
The method of D.H. Nugtern et al. Biochem. Biophys. Acta, 380, 299 (1975) was modified. Thus, a bovine platelet-derived preparation was used as the 12-lipoxygenase source. This enzyme preparation and the test compound were brought into contact with each other in 60 μl of 0.17 M Tris-hydrochloride buffer (pH 7.4) at 30° C. for 5 minutes, 50 μl of 60 μM arachidonic acid was then added and the enzymatic reaction was allowed to proceed at 30° C. for 10 minutes. Thereafter, 200 μl of methanol and 13-hydroxylinolic acid (internal standard) were added and, after sufficient shaking, the mixture was allowed to stand at -20° C. for 30 minutes. The supernatant was collected by centrifugation (12,000 revolutions per minute, 10 minutes). This supernatant was evaporated to dryness under a nitrogen gas stream. To the residue was added 200 μl of 75% aqueous methanol and 100 μl of the resultant solution was subjected to high performance liquid chromatography for the determination of 12-HETE (12-hydroxyeicosapetraenoic acid). 12-HETE was assayed by ultraviolet absorption monitoring at 234 nm. The yield of 12-HETE was calculated from the peak area corrected in comparison with the peak of the internal standard.

5-lipoxygenase [4] = molecular target: T2, 5-lipoxygenase; assay: Leukocyte 5-lipoxygenase inhibiting activity (Test Example 1, HPLC determination of 5-HETE); type: biochemical; conditions: RBL-1 cells as enzyme source; 60 μM arachidonic acid; pH 7.4; 37° C., 5 min; HPLC of 5-HETE; read-out: Inhibitory Activity IC50, 5-Lipoxygenase
Experimental: as §1
The method of B.A. Jakschik et al. Biochem. Biophys. Res. Commun., 95, 103 (1980) was modified. Thus, rat basophilic leukemia cells (RBL-1, ATCC No. CRL 1378) were used as the 5-lipoxygenase source. These cells were brought into contact with the test compound in 60 μl of 0.17 M Tris-hydrochloride buffer (pH 7.4) containing […], 3.3 mM adenosine triphosphate and 1 mM glutathione at 37° C. for 5 minutes, then 50 μl of 60 μM arachidonic acid was added and the enzymatic reaction was allowed to proceed at 37° C. for 5 minutes. Thereafter, 200 μl of methanol and 13-hydroxylinolic acid (internal standard) were added. After sufficient shaking, the mixture was allowed to stand at -20° C. for 30 minutes and then centrifuged for 10 minutes (12,000 revolutions per minute) to collect the supernatant. The supernatant was evaporated to dryness under a nitrogen gas stream. To the residue was added 200 μl of 75% aqueous methanol and 100 μl of the resultant solution was subjected to high performance liquid chromatography for the determination of 5-HETE (5-hydroxyeicosatetraenoic acid). 5-HETE was assayed on the basis of the absorption at 234 nm as measured by ultraviolet absorption monitoring. The yield of 5-HETE was calculated from the peak area corrected in comparison with the peak of the internal standard. […] (b) Platelet 12-lipoxygenase inhibiting activity

lipoxygenase = conditions: known compounds; cited from earlier work
[5] = literature; cited from earlier work

Structure (SMILES)	IC50 (12-lipoxygenase [1]) [nM]	IC50 (5-lipoxygenase [2]) [nM]	IC50 (5-lipoxygenase [4]) [nM]	further results
CCCCCCCCCCCCCCCCCC(=O)N(O)CCCCCNC(=O)CCC(=O)OC [compound 15]	32000	800	–	–
CCCCCCCCCCCC(=O)N(O)CCCCCNC(=O)CC(=O)OCC [Compound No. 8]	–	–	25	IC50 (12-lipoxygenase [3]): 12 nM
CCC(C)CCCCCCCCCCC(=O)N(O)CCCCCNC(=O)CCC(=O)OC (stereo not shown) [compound 21]	310	360	–	–
CC1=C(C)C(=O)C(CCCCC#CCCCC#CCO)=C(C)C1=O [AA-861, 2-(12-hydroxy-dodeca-5,10-diynyl)-3,5,6-trimethyl-1,4-benzoquinone, reference compound]	450000	680	–	lipoxygenase inhibiting activity (in words) (lipoxygenase): known to have lipoxygenase inhibiting activity; pharmacological activities (in words) [5]: bronchial contraction suppressing, anti-inflammatory, anti-myocardiac infarction and other activities
CCCCCCCCCCCCC(=O)N(O)CCCCCNC(=O)CCC(=O)OC [compound 24]	36	190	–	–
CCCCCCCCCCCC(=O)N(O)CCCCCNCCCC(=O)OC [Compound No. 7]	–	–	52	–
CCCCCCCCCCCC(=O)N(O)CCCCCNCCCC(=O)O [Compound No. 6]	–	–	560	–
CCCCCCCCCCCC(=O)N(O)CCCNC(=O)CCC(=O)OC [Compound No. 11]	–	–	12	–
COC(=O)CCC(=O)NCCCCCN(O)C(=O)CCCCCCCCC(C)C [compound 27]	33	89	–	–
CCCCCCCCCCCC(=O)N(O)CCCCCNC(=O)CCC(=O)OC [Compound No. 13]	14	55	–	–
Cl.NC1=NN(c2cccc(C(F)(F)F)c2)CC1 [BW-755C, 3-amino-1-(3-trifluoromethylphenyl)-2-pyrazoline hydrochloride]	8800	–	–	lipoxygenase inhibiting activity (in words) (lipoxygenase): known to have lipoxygenase inhibiting activity; pharmacological activities (in words) [5]: anti-inflammatory and other activities
CCCCCCCCCCCC(=O)NCCCCCN(O)C(=O)CCC(=O)OC [Compound No. 2]	–	–	10	IC50 (12-lipoxygenase [3]): 3300 nM
CCCCCCCCCCCC(=O)N(O)CCCNC(=O)CCC(=O)O [Compound No. 10]	–	–	270	IC50 (12-lipoxygenase [3]): 7000 nM
CCCCCCCCCCCC(=O)N(O)CCCCCNC(=O)CC(=O)OC [Compound No. 9]	–	–	54	IC50 (12-lipoxygenase [3]): 11 nM
CCCCCCCCCCCCCCCC(=O)N(O)CCCCCNC(=O)CCC(=O)OC [compound 17]	1000	470	–	–
CCCCCCCCCCCC(=O)N(O)CCCCCNC(=O)CCC(=O)O [Compound No. 12]	35	1870	–	–
COC(=O)CCC(=O)NCCCCCN(O)C(=O)CCCCCCCCCCC(C)C [compound 23]	56	300	–	–
